Conditions: mouse, in vivo, iv

Compound	plasma concentrations
O=c1[nH]cc(F)c(=O)[nH]1 [5FU, 5-fluorouracil]	did not reach the levels in nude mice that they do in patients receiving clinical doses
CN(Cc1cnc2nc(N)nc(N)c2n1)c1ccc(C(=O)N[C@@H](CCC(=O)O)C(=O)O)cc1 [MTX, methotrexate]	did not reach the levels in nude mice that they do in patients receiving clinical doses

— patent US20030165954A1, “Cancer profiles” (Third Wave Technologies, Inc., priority 2002, published 2003)
